Source: PubChem BioAssay (NCI)
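In this assay, cells in 96-well plates receive the compound at five concentrations for 48 hours. Endpoints are linearly interpolated between the surrounding concentrations. TGI denotes the concentration required for complete inhibition of growth.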

Key:
Experiment in all cases: inhibition of tumour cell growth, NCI panel, 48 h
786-0 renal = tested on: 786-0 renal
A498 renal = tested on: A498 renal
A549 NSCLC = tested on: A549 NSCLC
ACHN renal = tested on: ACHN renal
BT-549 breast = tested on: BT-549 breast
CAKI-1 renal = tested on: CAKI-1 renal
COLO 205 colon = tested on: COLO 205 colon
DU-145 prostate = tested on: DU-145 prostate
EKVX NSCLC = tested on: EKVX NSCLC
HCC-2998 colon = tested on: HCC-2998 colon
HCT-116 colon = tested on: HCT-116 colon
HCT-15 colon = tested on: HCT-15 colon
HOP-62 NSCLC = tested on: HOP-62 NSCLC
HOP-92 NSCLC = tested on: HOP-92 NSCLC
HS 578T breast = tested on: HS 578T breast
HT29 colon = tested on: HT29 colon
IGROV1 ovarian = tested on: IGROV1 ovarian
K-562 leukemia = tested on: K-562 leukemia
KM12 colon = tested on: KM12 colon
LOX IMVI melanoma = tested on: LOX IMVI melanoma
M14 melanoma = tested on: M14 melanoma
MCF7 breast = tested on: MCF7 breast
MDA-MB-231 breast = tested on: MDA-MB-231 breast
MDA-MB-435 = tested on: MDA-MB-435
MDA-N = tested on: MDA-N
MOLT-4 leukemia = tested on: MOLT-4 leukemia
NCI-H226 lung = tested on: NCI-H226 lung
NCI-H23 lung = tested on: NCI-H23 lung
NCI-H460 lung = tested on: NCI-H460 lung
NCI-H522 lung = tested on: NCI-H522 lung
NCI/ADR-RES ovarian = tested on: NCI/ADR-RES ovarian
OVCAR-3 ovarian = tested on: OVCAR-3 ovarian
OVCAR-4 ovarian = tested on: OVCAR-4 ovarian
OVCAR-5 ovarian = tested on: OVCAR-5 ovarian
OVCAR-8 ovarian = tested on: OVCAR-8 ovarian
PC-3 prostate = tested on: PC-3 prostate
RPMI-8226 leukemia = tested on: RPMI-8226 leukemia
RXF 393 renal = tested on: RXF 393 renal
SF-268 CNS = tested on: SF-268 CNS
SF-295 CNS = tested on: SF-295 CNS
SF-539 CNS = tested on: SF-539 CNS
SK-MEL-2 melanoma = tested on: SK-MEL-2 melanoma
SK-MEL-28 melanoma = tested on: SK-MEL-28 melanoma
SK-MEL-5 melanoma = tested on: SK-MEL-5 melanoma
SK-OV-3 ovarian = tested on: SK-OV-3 ovarian
SN12C renal = tested on: SN12C renal
SNB-19 CNS = tested on: SNB-19 CNS
SNB-75 CNS = tested on: SNB-75 CNS
SR leukemia = tested on: SR leukemia
T-47D breast = tested on: T-47D breast
TK-10 renal = tested on: TK-10 renal
U251 CNS = tested on: U251 CNS
UACC-257 melanoma = tested on: UACC-257 melanoma
UACC-62 melanoma = tested on: UACC-62 melanoma
UO-31 renal = tested on: UO-31 renal
CCRF-CEM leukemia = tested on: CCRF-CEM leukemia
HL-60(TB) leukemia = tested on: HL-60(TB) leukemia
MALME-3M melanoma = tested on: MALME-3M melanoma
SW-620 colon = tested on: SW-620 colon

Cc1cc2c([N+](=O)[O-])cc3c(c2o1)C(=O)C=CC3=O
TGI (786-0 renal): 3.59 µM | TGI (A498 renal): 29.5 µM | TGI (A549 NSCLC): 37.2 µM | TGI (ACHN renal): 3.77 µM | TGI (BT-549 breast): 30.4 µM | TGI (CAKI-1 renal): 2.68 µM | TGI (COLO 205 colon): 4.88 µM | TGI (DU-145 prostate): > 52.3 µM | TGI (EKVX NSCLC): 11.5 µM | TGI (HCC-2998 colon): > 57.8 µM | TGI (HCT-116 colon): 10.5 µM | TGI (HCT-15 colon): 37.1 µM | TGI (HOP-62 NSCLC): 34.1 µM | TGI (HOP-92 NSCLC): 3.22 µM | TGI (HS 578T breast): 54.8 µM | TGI (HT29 colon): 4.67 µM | TGI (IGROV1 ovarian): 26.6 µM | TGI (K-562 leukemia): > 100 µM | TGI (KM12 colon): 32.2 µM | TGI (LOX IMVI melanoma): > 36 µM | TGI (M14 melanoma): 10.6 µM | TGI (MCF7 breast): 11.2 µM | TGI (MDA-MB-231 breast): 40.2 µM | TGI (MDA-MB-435): 7.81 µM | TGI (MDA-N): 28 µM | TGI (MOLT-4 leukemia): 2.94 µM | TGI (NCI-H226 lung): > 75.1 µM | TGI (NCI-H23 lung): 34.9 µM | TGI (NCI-H460 lung): 36.7 µM | TGI (NCI-H522 lung): 3.32 µM | TGI (NCI/ADR-RES ovarian): 65.1 µM | TGI (OVCAR-3 ovarian): 19 µM | TGI (OVCAR-4 ovarian): 30.2 µM | TGI (OVCAR-5 ovarian): 35.1 µM | TGI (OVCAR-8 ovarian): > 55.7 µM | TGI (PC-3 prostate): 30.7 µM | TGI (RPMI-8226 leukemia): > 100 µM | TGI (RXF 393 renal): 3.54 µM | TGI (SF-268 CNS): 32.1 µM | TGI (SF-295 CNS): 23 µM | TGI (SF-539 CNS): 31.3 µM | TGI (SK-MEL-2 melanoma): 35.3 µM | TGI (SK-MEL-28 melanoma): > 20.8 µM | TGI (SK-MEL-5 melanoma): 28.1 µM | TGI (SK-OV-3 ovarian): > 80.1 µM | TGI (SN12C renal): 12.2 µM | TGI (SNB-19 CNS): 30.9 µM | TGI (SNB-75 CNS): > 61.5 µM | TGI (SR leukemia): > 76.4 µM | TGI (T-47D breast): > 22.1 µM | TGI (TK-10 renal): 5.72 µM | TGI (U251 CNS): 33.1 µM | TGI (UACC-257 melanoma): 7.23 µM | TGI (UACC-62 melanoma): 28.9 µM | TGI (UO-31 renal): 3.62 µM

C=CCNC(=S)N=Nc1c(O)[nH]c2ccc([N+](=O)[O-])cc12
TGI (A498 renal): 91.7 µM | TGI (A549 NSCLC): > 100 µM | TGI (ACHN renal): > 100 µM | TGI (BT-549 breast): > 100 µM | TGI (CAKI-1 renal): > 100 µM | TGI (CCRF-CEM leukemia): 41.5 µM | TGI (COLO 205 colon): > 100 µM | TGI (DU-145 prostate): > 100 µM | TGI (EKVX NSCLC): > 100 µM | TGI (HCC-2998 colon): > 100 µM | TGI (HCT-116 colon): > 100 µM | TGI (HCT-15 colon): > 100 µM | TGI (HL-60(TB) leukemia): > 100 µM | TGI (HOP-62 NSCLC): > 100 µM | TGI (HOP-92 NSCLC): > 100 µM | TGI (HS 578T breast): > 100 µM | TGI (HT29 colon): > 100 µM | TGI (IGROV1 ovarian): > 100 µM | TGI (K-562 leukemia): > 100 µM | TGI (KM12 colon): > 100 µM | TGI (LOX IMVI melanoma): > 100 µM | TGI (M14 melanoma): > 100 µM | TGI (MALME-3M melanoma): > 100 µM | TGI (MCF7 breast): > 100 µM | TGI (MDA-MB-231 breast): > 100 µM | TGI (MDA-MB-435): > 100 µM | TGI (MDA-N): > 100 µM | TGI (MOLT-4 leukemia): > 100 µM | TGI (NCI-H226 lung): > 100 µM | TGI (NCI-H23 lung): > 100 µM | TGI (NCI-H460 lung): > 100 µM | TGI (NCI-H522 lung): > 100 µM | TGI (NCI/ADR-RES ovarian): > 100 µM | TGI (OVCAR-3 ovarian): > 100 µM | TGI (OVCAR-4 ovarian): > 100 µM | TGI (OVCAR-5 ovarian): > 100 µM | TGI (OVCAR-8 ovarian): > 100 µM | TGI (PC-3 prostate): > 100 µM | TGI (RPMI-8226 leukemia): > 100 µM | TGI (RXF 393 renal): 73.3 µM | TGI (SF-268 CNS): > 100 µM | TGI (SF-295 CNS): > 100 µM | TGI (SF-539 CNS): > 100 µM | TGI (SK-MEL-2 melanoma): > 100 µM | TGI (SK-MEL-28 melanoma): > 100 µM | TGI (SK-MEL-5 melanoma): > 100 µM | TGI (SK-OV-3 ovarian): > 100 µM | TGI (SN12C renal): > 100 µM | TGI (SNB-19 CNS): > 100 µM | TGI (SR leukemia): > 100 µM | TGI (SW-620 colon): > 100 µM | TGI (T-47D breast): 87.4 µM | TGI (TK-10 renal): > 100 µM | TGI (U251 CNS): > 100 µM | TGI (UACC-257 melanoma): > 100 µM | TGI (UACC-62 melanoma): > 100 µM | TGI (UO-31 renal): > 100 µM
